Reference: patent US7402548B2, “Benzoxazole compounds, process for producing the same and herbicides” (Kyoyu Agri Co., Ltd., priority 2000, dated 2008)

Assays:
[1] = test system: common lambsquarters; experiment: Foliar spread test for upland field; type: in vivo, Chenopodium album; design: key: 0 = normal development, 5 = all killed (6 ranks vs. untreated); conditions: foliar spray, 500 ppm, 3 weeks, glass house 25° C.
Method in brief: (§1)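 Plants grown about 2 weeks at 25 °C in volcanic ash soil were sprayed with wettable powder diluted to 500 ppm in water with 0.5% surfactant. After 3 weeks at 25 °C, damage was scored 0 (normal) to 5 (all killed) against untreated plants.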

[2] = test system: barnyard grass; experiment: Soil treatment test for upland field; type: in vivo, Eschinochloa crusgalli; design: key: 0 = normal development, 5 = all killed; conditions: 500 g/ha, 3 weeks, glass house 25° C.
Method in brief: (§2)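 Using a pre-emergence soil application at 500 g/ha, treated pots were held 3 weeks in a glass house averaging 25° C. Injury was graded on a 0–5 scale against non-treated pots; "-" marks entries not investigated.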

[3] = test system: blackgrass; experiment: Soil treatment test for upland field; type: in vivo, Alopecurus aegualis; design: key: 0 = normal development, 5 = all killed; conditions: 500 g/ha, 3 weeks, glass house 25° C.
Method in brief: as §2

[4] = test system: arrowhead; experiment: Herbicidal test for paddy field; type: in vivo, Sagittaria pygmaea; conditions: 500 g/ha, dropwise addition to paddy water at 1.5 leaf stage of barnyard grass; glass house 25° C., 3 weeks; rank 0-5 vs non-treated district
Procedure: Wagner pots, each having an area of 1/5000 are, were packed with Ube soil (alluvial soil) and planted with seeds or tubers of young rice plant, barnyard grass, bulrush, Cyperus serotinus Rottb., arrowhead and monochoria. Then, the pots were filled with water to a depth of 3 cm.
Each wettable powder of the desired Compounds (I) shown in Tables 1 to 21, 24, 25, 28 and 29 prepared in accordance with Example 2 was diluted with water containing a surfactant (0.05%) and subjected to dropwise addition treatment by using pipet so that an effective concentration of the compound (I) in each herbicide became 500 g/ha at 1.5 leaf stage of barnyard grass.
(§3) These plants were controlled in a glass house at an average temperature of 25° C. for 3 weeks, and then herbicidal effects thereof were investigated.
(§4) The herbicidal effects are evaluated according to the following 6 ranks as compared with non-treated district. (0: normal development, 1: Less damaged, 2: Slightly damaged, 3: Moderately damaged, 4: Severely damaged, 5: All killed). Incidentally, “-” in the column means not investigated.

[5] = test system: green foxtail; experiment: Soil treatment test for upland field; type: in vivo, Setaria viridis; design: key: 0 = normal development, 5 = all killed; conditions: 500 g/ha, 3 weeks, glass house 25° C.
Method in brief: as §2

[6] = test system: Xanthium pensylvanicum; experiment: Foliar spread test for upland field; type: in vivo; design: key: 0 = normal development, 5 = all killed; conditions: foliar spray, 500 ppm, 3 weeks, glass house 25° C.
Procedure: as §4
(§5) Wagner pots, each having an area of 1/5000 are, were packed with volcanic ash soil and then each seed of corn, soybean, cotton, wheat, solgum, sugar beat, Large crabgrass, barnyardgrjass, green foxtail, blackgrass, annual bluegrass, common lambsquarters, livid amaranth, velvetleaf, morning glory, Xanthium pensylvanicum and Cassia obtusifolia was planted, covered with soil and grown in a glass house at an average temperature of 25° C. for about 2 weeks.
(§6) Each wettable powder of the desired compounds (I) shown in Tables 1 to 21, 24, 25, 28 and 29 prepared in accordance with Example 2 was diluted to 500 ppm with water containing a surfactant (0.5%) and then uniformly sprayed on the above respective plants.
(§7) After these plants were controlled in a glass house at an average temperature of 25° C. for 3 weeks, the herbicidal effects thereof were investigated.
(§8) The herbicidal effects were evaluated according to the evaluation method described in the above (1).

[7] = test system: Cassia obtusifolia; experiment: Foliar spread test for upland field; type: in vivo; design: key: 0 = normal development, 5 = all killed; conditions: foliar spray, 500 ppm, 3 weeks, glass house 25° C.
Procedure: as §4, §5, §6, §7, §8

[8] = test system: sicklepod (Cassia obtusifolia); experiment: Soil treatment test for upland field; type: in vivo; conditions: 500 g/ha, 3 weeks, glass house 25° C.
Procedure: as §4
(§9) Wagner pots, each having an area of 1/5000 are, were packed with Ube soil (alluvial soil), and then each seed of corn, soybean, cotton, wheat, solgum, sugar beat, Large crabgrass, barnyard grass, green foxtail, blackgrass, annual bluegrass, common lambsquarters, livid amaranth, velvetleaf, morning glory, common Cocklebur (Xanthium strumarium) and sicklepod (Cassia obtusifolia) were planted and covered with soil.
(§10) Each wettable powder of the desired compounds (I) shown in Tables 1 to 21, 24, 25, 28 and 29 prepared in accordance with Example 2 was diluted with water containing a surfactant (0.05%) and uniformly sprayed on the surface of each soil so that an effective concentration of the compound (I) in each herbicide became 500 g/ha.
as §3, §8

[9] = test system: common Cocklebur (Xanthium strumarium); experiment: Soil treatment test for upland field; type: in vivo; conditions: 500 g/ha, 3 weeks, glass house 25° C.
Procedure: as §4, §9, §10, §3, §8

[10] = test system: annual bluegrass; experiment: Foliar spread test for upland field; type: in vivo, Poa annua; design: key: 0 = normal development, 5 = all killed (6 ranks vs. untreated); conditions: foliar spray, 500 ppm, 3 weeks, glass house 25° C.
Method in brief: as §1

[11] = test system: Large crabgrass; experiment: Soil treatment test for upland field; type: in vivo, Digitaria adscendens; design: key: 0 = normal development, 5 = all killed; conditions: 500 g/ha, 3 weeks, glass house 25° C.
Method in brief: as §2

[12] = test system: barnyardgrjass; experiment: Foliar spread test for upland field; type: in vivo, Eschinochloa crusgalli; design: key: 0 = normal development, 5 = all killed (6 ranks vs. untreated); conditions: foliar spray, 500 ppm, 3 weeks, glass house 25° C.
Method in brief: as §1

[13] = test system: barnyard grass; experiment: Herbicidal test for paddy field; type: in vivo, Eschinochloa crusgalli; conditions: 500 g/ha, dropwise addition to paddy water at 1.5 leaf stage of barnyard grass; glass house 25° C., 3 weeks; rank 0-5 vs non-treated district
Method in brief: (§11)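 Wettable-powder formulations in water with 0.05% surfactant were dripped onto flooded (3 cm) Ube alluvial-soil pots at 500 g/ha, applied at barnyard grass 1.5-leaf stage. Plants were kept in a glasshouse at 25° C. for 3 weeks. Damage was scored 0 (normal) to 5 (all killed) versus untreated plants.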

[14] = test system: velvetleaf; experiment: Soil treatment test for upland field; type: in vivo, Abutilon theophrasti; design: key: 0 = normal development, 5 = all killed; conditions: 500 g/ha, 3 weeks, glass house 25° C.
Method in brief: as §2

[15] = test system: bulrush; experiment: Herbicidal test for paddy field; type: in vivo, Scrips juncoides; conditions: 500 g/ha, dropwise addition to paddy water at 1.5 leaf stage of barnyard grass; glass house 25° C., 3 weeks; rank 0-5 vs non-treated district
Method in brief: as §11

[16] = test system: corn; experiment: Soil treatment test for upland field; type: in vivo; design: key: 0 = normal development, 5 = all killed; conditions: 500 g/ha, 3 weeks, glass house 25° C.
Method in brief: as §2

[17] = test system: wheat; experiment: Soil treatment test for upland field; type: in vivo; design: key: 0 = normal development, 5 = all killed; conditions: 500 g/ha, 3 weeks, glass house 25° C.
Method in brief: as §2

[18] = test system: solgum; experiment: Soil treatment test for upland field; type: in vivo; design: key: 0 = normal development, 5 = all killed; conditions: 500 g/ha, 3 weeks, glass house 25° C.
Method in brief: as §2

[19] = test system: sugar beat; experiment: Soil treatment test for upland field; type: in vivo; design: key: 0 = normal development, 5 = all killed; conditions: 500 g/ha, 3 weeks, glass house 25° C.
Method in brief: as §2

[20] = test system: annual bluegrass; experiment: Soil treatment test for upland field; type: in vivo, Poa annua; design: key: 0 = normal development, 5 = all killed; conditions: 500 g/ha, 3 weeks, glass house 25° C.
Method in brief: as §2

[21] = test system: Cyperus serotinus Rottb.; experiment: Herbicidal test for paddy field; type: in vivo; conditions: 500 g/ha, dropwise addition to paddy water at 1.5 leaf stage of barnyard grass; glass house 25° C., 3 weeks; rank 0-5 vs non-treated district
Method in brief: as §11

[22] = test system: velvetleaf; experiment: Foliar spread test for upland field; type: in vivo, Abutilon theophrasti; design: key: 0 = normal development, 5 = all killed (6 ranks vs. untreated); conditions: foliar spray, 500 ppm, 3 weeks, glass house 25° C.
Method in brief: as §1

[23] = test system: corn; experiment: Foliar spread test for upland field; type: in vivo; design: key: 0 = normal development, 5 = all killed (6 ranks vs. untreated); conditions: foliar spray, 500 ppm, 3 weeks, glass house 25° C.
Method in brief: as §1

[24] = test system: soybean; experiment: Foliar spread test for upland field; type: in vivo; design: key: 0 = normal development, 5 = all killed (6 ranks vs. untreated); conditions: foliar spray, 500 ppm, 3 weeks, glass house 25° C.
Method in brief: as §1

[25] = test system: wheat; experiment: Foliar spread test for upland field; type: in vivo; design: key: 0 = normal development, 5 = all killed (6 ranks vs. untreated); conditions: foliar spray, 500 ppm, 3 weeks, glass house 25° C.
Method in brief: as §1

[26] = test system: solgum; experiment: Foliar spread test for upland field; type: in vivo; design: key: 0 = normal development, 5 = all killed (6 ranks vs. untreated); conditions: foliar spray, 500 ppm, 3 weeks, glass house 25° C.
Method in brief: as §1

[27] = test system: sugar beat; experiment: Foliar spread test for upland field; type: in vivo; design: key: 0 = normal development, 5 = all killed (6 ranks vs. untreated); conditions: foliar spray, 500 ppm, 3 weeks, glass house 25° C.
Method in brief: as §1

[28] = test system: cotton; experiment: Foliar spread test for upland field; type: in vivo; design: key: 0 = normal development, 5 = all killed (6 ranks vs. untreated); conditions: foliar spray, 500 ppm, 3 weeks, glass house 25° C.
Method in brief: as §1

[29] = test system: Large crabgrass; experiment: Foliar spread test for upland field; type: in vivo, Digitaria adscendens; design: key: 0 = normal development, 5 = all killed (6 ranks vs. untreated); conditions: foliar spray, 500 ppm, 3 weeks, glass house 25° C.
Method in brief: as §1

[30] = test system: livid amaranth; experiment: Soil treatment test for upland field; type: in vivo, Amaranthus lividus; design: key: 0 = normal development, 5 = all killed; conditions: 500 g/ha, 3 weeks, glass house 25° C.
Method in brief: as §2

[31] = test system: common lambsquarters; experiment: Soil treatment test for upland field; type: in vivo, Chenopodium album; design: key: 0 = normal development, 5 = all killed; conditions: 500 g/ha, 3 weeks, glass house 25° C.
Method in brief: as §2

[32] = test system: blackgrass; experiment: Foliar spread test for upland field; type: in vivo, Alopecurus aegualis; design: key: 0 = normal development, 5 = all killed (6 ranks vs. untreated); conditions: foliar spray, 500 ppm, 3 weeks, glass house 25° C.
Method in brief: as §1

[33] = test system: livid amaranth; experiment: Foliar spread test for upland field; type: in vivo, Amaranthus lividus; design: key: 0 = normal development, 5 = all killed (6 ranks vs. untreated); conditions: foliar spray, 500 ppm, 3 weeks, glass house 25° C.
Method in brief: as §1

[34] = test system: green foxtail; experiment: Foliar spread test for upland field; type: in vivo, Setaria viridis; design: key: 0 = normal development, 5 = all killed (6 ranks vs. untreated); conditions: foliar spray, 500 ppm, 3 weeks, glass house 25° C.
Method in brief: as §1

[35] = test system: morning glory; experiment: Soil treatment test for upland field; type: in vivo, Ipomoea spps.; design: key: 0 = normal development, 5 = all killed; conditions: 500 g/ha, 3 weeks, glass house 25° C.
Method in brief: as §2

[36] = test system: morning glory; experiment: Foliar spread test for upland field; type: in vivo, Ipomoea spps.; design: key: 0 = normal development, 5 = all killed (6 ranks vs. untreated); conditions: foliar spray, 500 ppm, 3 weeks, glass house 25° C.
Method in brief: as §1

Row | Structure (SMILES) | Effects Common lambsquarters [1] | Effects Barnyardgrass [2] | Effects Blackgrass [3] | Effects Arrowhead [4] | Effects Green foxtail [5] | Effects Common Cocklebur [6] | Effects Sicklepod [7] | Effects Sicklepod [8] | Effects Annual bluegrass [10] | Effects Large crabgrass [11] | Effects Barnyardgrass [12] | Effects Barnyardgrass [13] | Effects Velvetleaf [14] | Effects Bulrush [15] | Effects Corn [16] | Effects Solgum [18] | Effects Sugar beat [19] | Effects Annual bluegrass [20] | Effects Velvetleaf [22] | Effects Corn [23] | further results
1 | FC(F)(F)c1cccc(Oc2cccc(-c3nc4ccccc4o3)n2)c1 [I-a-1] | 5 | 4 | 4 | 1 | 5 | 4 | 5 | 3 | 4 | 5 | 3 | 4 | 3 | 2 | 0 | 2 | 5 | 5 | 4 | 2 | Effects Common Cocklebur [9]: 5; Effects Wheat [17]: 1; Effects Cyperus serotinus Rottb. [21]: 2; Effects Soybean [24]: 5; Effects Wheat [25]: 2; Effects Solgum [26]: 2; Effects Sugar beat [27]: 4; Effects Sotton [28]: 4; Effects Large crabgrass [29]: 4; Effects Livid amaranth [30]: 5; Effects Common lambsquarters [31]: 5; Effects Blackgrass [32]: 2; Effects Livid amaranth [33]: 5; Effects Green foxtail [34]: 5; Effects Morning glory [35]: 4; Effects Morning glory [36]: 5
2 | Fc1ccc2oc(-c3cccc(Oc4cccc(C(F)(F)F)c4)n3)nc2c1 [I-a-2] | 5 | 4 | 5 | 1 | 5 | 4 | 4 | 3 | 4 | 5 | 3 | 4 | 5 | 3 | 2 | 1 | 5 | 5 | 4 | 2 | Effects Common Cocklebur [9]: 3; Effects Wheat [17]: 1; Effects Soybean [24]: 3; Effects Wheat [25]: 2; Effects Solgum [26]: 2; Effects Sugar beat [27]: 4; Effects Sotton [28]: 4; Effects Large crabgrass [29]: 4; Effects Livid amaranth [30]: 5; Effects Common lambsquarters [31]: 5; Effects Blackgrass [32]: 3; Effects Livid amaranth [33]: 5; Effects Green foxtail [34]: 5; Effects Morning glory [35]: 5; Effects Morning glory [36]: 5
3 | COc1ccc2oc(-c3cccc(Oc4cccc(C(F)(F)F)c4)n3)nc2c1 [I-a-4] | 5 | 3 | 0 | 0 | 1 | 3 | 4 | 0 | 1 | 0 | 0 | 0 | 1 | 0 | 0 | 0 | 0 | 0 | 3 | 1 | Effects Cyperus serotinus Rottb. [21]: 0; Effects Soybean [24]: 2; Effects Wheat [25]: 1; Effects Solgum [26]: 1; Effects Sugar beat [27]: 4; Effects Sotton [28]: 2; Effects Large crabgrass [29]: 1; Effects Common lambsquarters [31]: 0; Effects Blackgrass [32]: 0; Effects Livid amaranth [33]: 5; Effects Green foxtail [34]: 1; Effects Morning glory [35]: 1; Effects Morning glory [36]: 5
